Columns and labels:
SIK2 = biological target: T1, SIK2 (Homo sapiens, UniProt Q9H0K1); assay: ADP-Glo kinase assay, SIK2; assay type: biochemical; settings: AMARA peptide 45 μM, 5 μM ATP, 120 min
T1 construct: purchased ThermoFisher Scientific PV4792
Text: (§1) The ADP-Glo™ kinase assay is a luminescent technology assay which measures the ADP formed from a kinase reaction. In this specific study, the kinase reactions consisted of the phosphorylation of the AMARA peptide substrate (SignalChem, Cat #A11-58) by SIK1 (Carma Biosciences, Cat #02-131), SIK2 (ThermoFisher Scientific, Cat #PV4792) or SIK3 (SignalChem, Cat #S12-11G-100). In a second step the kinase reactions are terminated and all the remaining ATP is depleted. In a final step the ADP is converted into ATP and this newly synthesized ATP is measured by using a luciferase/luciferin reaction. The generated light is measured using an Envision plate reader, wherein the luminescent signal obtained positively correlates with the kinase activity.
(§2) The test compounds are prepared as a serial dilution of 10 point dose responses with ⅕ dilution steps in 100% DMSO starting from 2 mM highest concentration, diluted 1/20 in water and […] is transferred to the assay plates (PerkinElmer Inc., Cat #6007290).
(§3) 1% DMSO and 10 μM staurosporine final concentrations are used as negative and positive controls.
(§4) 2 μL enzyme-substrate mixture is added to the assay plates.
(§5) The reaction is started by adding 2 μL diluted ATP on the assay plates. Plates are centrifuged for a few seconds at 1000 rpm and gently shaken for 2 min followed by an incubation at RT for 120 min.
(§6) The reactions are stopped and the unconsumed ATP is depleted by adding 5 μL ADP-Glo Reagent (Promega, Cat #V9121B) to the reaction. The plates are centrifuged for a few seconds at 1000 rpm and incubated at RT for […] (ATP depletion).
(§7) The ADP is converted to ATP and luciferase and luciferin is introduced to detect ATP by adding 10 μL Kinase Detection Reagent (Promega, Cat #V913B+V914r) to the reaction. The plates are centrifuged for a few seconds at 1000 rpm and incubated at RT for 30 min (ADP detection).
(§8) Luminescence is measured on an Envision plate reader (PerkinElmer Inc.).
(§9) Raw data are generated following the read-out performed on the TopCount, plotted to generate dose response curves to calculate percentage inhibition (PIN) and average IC50 for each SIK homologue which are reported in the table below.

SIK3 = biological target: T2, SIK3 (Homo sapiens, UniProt Q9Y2K2); assay: ADP-Glo kinase assay, SIK3; assay type: biochemical; settings: AMARA peptide 45 μM, 5 μM ATP, 120 min
T2 construct: purchased SignalChem S12-11G-100
Text: as §1, §2, §3, §4, §5, §6, §7, §8, §9

SIK1 = biological target: T3, SIK1 (Homo sapiens, UniProt P57059); assay: ADP-Glo kinase assay, SIK1; assay type: biochemical; settings: AMARA peptide 45 μM, 5 μM ATP, 120 min, read-out: SIM1 IC50
T3 construct: purchased Carna Biosciences 02-131
Text: as §1, §2, §3, §4, §5, §6, §7, §8, §9

[1] = tested on: LPS-induced TNFα in monocytes; assay: Monocytes assay: LPS-triggered TNFα (ELISA); assay type: cell-based; settings: Homo sapiens, Monocyte, LPS 200 ng/mL, supernatant after 4 h
Experimental: SIK inhibition inhibits TNFα and increases IL-10 release in LPS triggered monocyte-derived macrophages (MdM) and dendritic cells (MdDCs) (Clark et al. 2012; Sundberg et al. 2014; Ozanne et al. 2015). This assay evaluates illustrative compounds of the invention for their inhibition of LPS-induced TNFα and LPS triggered IL-10 secretion in monocytes.
PBMCs are isolated from human blood samples (buffycoats). The buffy coat is aseptically transferred into a 50 mL Falcon tube, and diluted ½ in PBS. Falcon tubes are filled with 20 mL Lymphoprep™, on top of which 25 mL of the buffy coat is carefully added, tubes are centrifuged for 35 min at 400 g in temperature controlled centrifuge, without brake, at 25° C. PBMCs are aspirated from the white interface layer between sample and Lymphoprep™. PBMCs are washed five times in PBS. Cells are resuspended in RPMI 1640 complete medium supplemented with 10% FBS, 1% P/S, and cell density is determined using a hematologic analyzer (Sysmex XS-500i).
PBMCs are centrifuged at 300×g for 10 min and resuspended at a density of 1.0*10^7 cells/80 μL Miltenyi buffer (PBS, pH 7.4, 1% FBS, 2 mM EDTA).
Starting from this point of the protocol all steps are performed on ice. 20 μL of CD14+ micro-beads are added per 1.0*10^7 cells, the tube is mixed and incubated for 15 min in the fridge at 4° C. Cell suspension volume is adjusted to total volume of 100 mL using Miltenyi buffer, mixed gently and subsequently centrifuged for 10 min at 300×g. Supernatant is discarded and cell pellet is resuspended in 12 mL of Miltenyi buffer.
Four LS columns are placed in the MACS Separator (magnet) from Miltenyi Biotec, and are prewet by rinsing with 3 mL of MACS buffer per column. Three mL of cell suspension is added onto the column (max 1*10^8 of labelled cells/column), and columns are subsequently washed 3 times with 3 mL of Miltenyi buffer.
The columns are removed from the magnets, and 5 mL of Miltenyi buffer are added to the column to flush out the CD14+ fraction by pushing the plunger into the column. The flushed fractions are collected in a fresh 50 mL Falcon and volume is adjusted to 30 mL using Miltenyi buffer, cells are centrifuged for 10 min at 300×g. The obtained cell pellet is resuspended in 10 mL RPMI w/o FBS, and cell density is determined using a hematologic analyser (Sysmex XS-500i). 100 000 cells are seeded in 80 μL per well of a 96-well plate in RPMI 1640 medium supplemented with 10% FBS, 1% P/S.
A compound dilution plate is made in 100% DMSO by 3-fold dilution of 10 mM stock solution. An intermediate dilution plate (10× final concentration) is made by diluting the compound dilution plate 50-fold in RPMI medium.
10 μL of the 10× final concentration compound is added to the cells and incubated for 1 h at 37° C. before addition of trigger. […]

[2] = mice; Wein et al. 2016; cited from earlier work

T2 sequence (Q9Y2K2 whole entry): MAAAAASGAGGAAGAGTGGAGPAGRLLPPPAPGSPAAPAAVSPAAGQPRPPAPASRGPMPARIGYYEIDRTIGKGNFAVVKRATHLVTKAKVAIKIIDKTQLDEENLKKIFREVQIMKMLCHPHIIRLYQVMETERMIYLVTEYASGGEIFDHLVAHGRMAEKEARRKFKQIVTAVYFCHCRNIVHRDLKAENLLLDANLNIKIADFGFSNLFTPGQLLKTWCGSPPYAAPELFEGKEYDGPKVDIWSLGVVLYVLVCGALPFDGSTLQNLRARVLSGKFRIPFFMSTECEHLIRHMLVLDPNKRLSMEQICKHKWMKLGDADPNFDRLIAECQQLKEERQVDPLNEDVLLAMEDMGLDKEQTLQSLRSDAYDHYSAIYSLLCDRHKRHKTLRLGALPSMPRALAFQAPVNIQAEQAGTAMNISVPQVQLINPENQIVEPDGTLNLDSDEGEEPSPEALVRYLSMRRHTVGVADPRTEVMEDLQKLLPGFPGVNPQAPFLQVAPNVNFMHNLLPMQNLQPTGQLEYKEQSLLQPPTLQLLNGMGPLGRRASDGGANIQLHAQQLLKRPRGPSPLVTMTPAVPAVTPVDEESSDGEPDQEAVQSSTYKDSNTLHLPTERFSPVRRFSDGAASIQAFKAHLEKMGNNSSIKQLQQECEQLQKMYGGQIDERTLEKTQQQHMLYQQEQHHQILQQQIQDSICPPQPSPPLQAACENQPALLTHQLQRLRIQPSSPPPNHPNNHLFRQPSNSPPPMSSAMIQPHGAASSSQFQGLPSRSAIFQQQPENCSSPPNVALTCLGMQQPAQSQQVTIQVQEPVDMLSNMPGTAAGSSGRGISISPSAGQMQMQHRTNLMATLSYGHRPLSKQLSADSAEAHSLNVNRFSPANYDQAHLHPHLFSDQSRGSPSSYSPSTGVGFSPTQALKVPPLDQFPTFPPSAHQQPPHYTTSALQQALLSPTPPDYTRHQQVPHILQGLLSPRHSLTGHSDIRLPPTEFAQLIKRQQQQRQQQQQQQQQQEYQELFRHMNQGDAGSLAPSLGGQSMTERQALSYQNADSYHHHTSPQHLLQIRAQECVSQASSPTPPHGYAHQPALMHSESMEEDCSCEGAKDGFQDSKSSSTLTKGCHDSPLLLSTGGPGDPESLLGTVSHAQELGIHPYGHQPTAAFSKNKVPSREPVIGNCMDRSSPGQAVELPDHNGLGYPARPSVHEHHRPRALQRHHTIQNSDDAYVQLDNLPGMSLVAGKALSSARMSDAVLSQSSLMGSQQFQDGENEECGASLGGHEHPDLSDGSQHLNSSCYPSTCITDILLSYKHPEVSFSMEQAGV
T1 sequence (Q9H0K1 whole entry): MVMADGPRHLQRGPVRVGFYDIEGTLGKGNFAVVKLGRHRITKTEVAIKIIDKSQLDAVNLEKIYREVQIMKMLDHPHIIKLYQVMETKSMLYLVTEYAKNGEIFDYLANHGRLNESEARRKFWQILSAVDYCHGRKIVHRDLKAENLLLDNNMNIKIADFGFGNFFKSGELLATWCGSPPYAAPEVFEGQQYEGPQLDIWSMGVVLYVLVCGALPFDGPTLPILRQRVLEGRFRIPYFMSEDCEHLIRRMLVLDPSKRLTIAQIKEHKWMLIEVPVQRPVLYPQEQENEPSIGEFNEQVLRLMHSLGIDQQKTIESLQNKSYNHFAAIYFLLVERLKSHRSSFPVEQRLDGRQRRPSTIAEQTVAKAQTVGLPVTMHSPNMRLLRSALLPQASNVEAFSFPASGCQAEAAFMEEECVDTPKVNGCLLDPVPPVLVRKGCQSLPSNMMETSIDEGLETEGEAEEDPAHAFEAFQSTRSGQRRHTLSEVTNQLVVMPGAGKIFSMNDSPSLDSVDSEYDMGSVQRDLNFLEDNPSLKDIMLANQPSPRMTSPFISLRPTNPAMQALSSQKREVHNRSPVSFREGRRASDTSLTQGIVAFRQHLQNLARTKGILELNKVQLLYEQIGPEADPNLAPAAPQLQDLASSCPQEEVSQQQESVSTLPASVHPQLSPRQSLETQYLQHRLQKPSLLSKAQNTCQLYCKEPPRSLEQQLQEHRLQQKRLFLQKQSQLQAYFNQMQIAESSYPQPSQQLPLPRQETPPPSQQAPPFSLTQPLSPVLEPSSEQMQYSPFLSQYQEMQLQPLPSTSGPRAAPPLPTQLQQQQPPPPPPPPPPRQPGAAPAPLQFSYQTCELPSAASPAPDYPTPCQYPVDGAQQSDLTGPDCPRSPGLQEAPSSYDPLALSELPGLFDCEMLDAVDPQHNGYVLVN
T3 sequence (P57059 whole entry): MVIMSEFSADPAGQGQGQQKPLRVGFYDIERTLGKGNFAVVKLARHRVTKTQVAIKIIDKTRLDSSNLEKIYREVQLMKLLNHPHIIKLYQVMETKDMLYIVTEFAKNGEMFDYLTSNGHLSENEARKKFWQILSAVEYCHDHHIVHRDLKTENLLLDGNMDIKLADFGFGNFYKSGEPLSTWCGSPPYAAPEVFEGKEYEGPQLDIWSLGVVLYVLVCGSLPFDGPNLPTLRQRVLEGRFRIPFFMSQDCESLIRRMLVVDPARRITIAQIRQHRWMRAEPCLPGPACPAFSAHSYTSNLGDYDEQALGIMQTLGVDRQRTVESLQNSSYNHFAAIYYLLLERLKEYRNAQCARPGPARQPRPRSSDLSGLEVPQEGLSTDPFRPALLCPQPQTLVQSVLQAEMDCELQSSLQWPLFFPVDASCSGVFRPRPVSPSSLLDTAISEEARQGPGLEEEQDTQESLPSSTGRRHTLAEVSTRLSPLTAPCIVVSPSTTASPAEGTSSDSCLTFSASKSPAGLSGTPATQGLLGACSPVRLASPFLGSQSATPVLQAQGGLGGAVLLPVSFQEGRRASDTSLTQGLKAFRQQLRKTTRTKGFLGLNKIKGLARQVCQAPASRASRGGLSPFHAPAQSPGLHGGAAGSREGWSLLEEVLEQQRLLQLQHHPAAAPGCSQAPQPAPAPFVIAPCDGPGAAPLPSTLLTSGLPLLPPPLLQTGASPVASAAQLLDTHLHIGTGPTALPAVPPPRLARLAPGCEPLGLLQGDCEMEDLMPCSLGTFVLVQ

Row | IC50 (SIK2) [nM] | IC50 (SIK3) [nM] | IC50 (SIK1) [nM] | EC50 [1] [nM] | Compound | bone formation and bone mass [2]
1 | 10 to 100 | 10 to 100 | > 500 |  | COc1cc(-c2cnc3cc(OCCN4CCOCC4)cnn23)cc2c1C(=O)N(CC(F)(F)F)CC2 [Cpd 5, 8-methoxy-6-[7-(2-morpholinoethoxy)imidazo[1,2-b]pyridazin-3-yl]-2-(2,2,2-trifluoroethyl)-3,4-dihydroisoquinolin-1-one] | 
2 | 10 to 100 | 10 to 100 | > 500 | 100 to 1000 | COc1cc(-c2cnn3cc(OC(C)(C)CN4CC5(COC5)C4)ccc23)cc(OC(F)F)c1C(=O)N[C@@H]1C[C@@H]1F [Cpd 6, 2-(difluoromethoxy)-4-[6-[1,1-dimethyl-2-(2-oxa-6-azaspiro[3.3]heptan-6-yl)ethoxy]pyrazolo[1,5-a]pyridin-3-yl]-N-[(2S)-2-fluorocyclopropyl]-6-methoxy-benzamide] | 
3 |  |  |  |  | COc1ccc(N2C(=O)N(c3c(C)cccc3Cl)Cc3cnc(Nc4ccc(C5CCN(C)CC5)cc4OC)nc32)nc1 [YKL-05-099] | increased bone formation and bone mass
4 | 10 to 100 | 10 to 100 | > 500 |  | COc1cc(-c2cnn3cc(OCCN4CCOCC4)cnc23)cc2c1C(=O)N(CC(F)(F)F)CC2 [Cpd 4, 8-methoxy-6-[6-(2-morpholinoethoxy)pyrazolo[1,5-a]pyrimidin-3-yl]-2-(2,2,2-trifluoroethyl)-3,4-dihydroisoquinolin-1-one] | 

Source: US12606554B2, “Compounds and pharmaceutical compositions thereof for the treatment of diseases” (ONCO3R Therapeutics BV, priority 2019, dated 2026)
